Values of other authors as cited in patent US20110129540A1, “Polymer of acrylic or methacrylic type comprising alpha-tocopherol grafts” (Flamel Technologies, priority 2009, published 2011).
In brackets after ≈: the same amount, converted by molar mass.

Conditions: no polymer

For `COc1ccccc1OCCNCC(O)COc1cccc2[nH]c3ccccc3c12` (stereo not shown) [carvedilol], the “Solubility in pure water” value is given as 50 mg/L (≈ 123 µM).
